Laboratory results: patent US12269902B2, “Peptide compounds and peptide conjugates for the treatment of cancer through receptor-mediated chemotherapy” (TRANSFERT PLUS, S.E.C., priority 2015, dated 2025)
Non-standard residues stand in square brackets, D forms with d. Residues, ends and D or L forms follow the SMILES beside them. *: point of attachment. X3 = COc1cccc2c1C(=O)c1c(O)c3c(c(O)c1C2=O)C[C@@](O)(C(=O)COC(=O)CC(C)(C)CC(=O)*)C[C@@H]3O[C@H]1C[C@H](N)[C@H](O)[C@H](C)O1; X2 = COc1cc(/C=C/C(=O)CC(=O)/C=C/c2ccc(OC(=O)CC(C)(C)CC(=O)*)c(OC)c2)ccc1O; Nle = CCCC[C@H](N)C(=O)O

Tests used:
[1] = tested on: SK-MEL-28 skin cancer cells; test: [3H]-Thymidine incorporation cell proliferation assay, SK-MEL-28; assay type: cell-based
Description: (§1) The effect of the Docetaxel-Katana peptide conjugate on various cell line proliferations was evaluated and compared to unconjugated Docetaxel (Table 4). IC50 values obtained for the Docetaxel-Katana peptide conjugate were very similar to those of Docetaxel in the cancer cells tested.
(§2) The phytochemical Curcumin, unconjugated and conjugated, was also tested on cancer cell proliferation (FIG. 28). Breast cancer cells (MDA-MB231) were incubated with increasing concentrations of KBC106 or curcumin. After 72 hrs, thymidine incorporation assay was performed to assess the anti-proliferative properties of both molecules. IC50 values were extracted from the anti-proliferative curves. […] Proliferation assay was also performed using different types of cancer cells (ovarian, breast, skin and colorectal cancer cells). IC50 values were calculated from the anti-proliferation curves. In all cases, the Curcumin conjugate (KBC106) had stronger anti-proliferative activity (9-100 fold) than unconjugated Curcumin, as shown in Table 6 below.
(§3) Cancer cells were cultured in 96-well white plates (Perkin Elmer). They were synchronized for 24 hours in serum-deprived medium. After incubation of cells with unconjugated drugs (docetaxel, cabazitaxel, doxorubicin) or with drug-Katana peptide conjugates for 2 or 3 days, all media was aspirated and cells were pulse-labeled for 4 hours at 37° C./[…]/5% CO2 with media containing 2.5 μCi/mL [methyl-3H] thymidine (Perkin Elmer). Cells were washed, fixed, and dried before addition of scintillation fluid (Microscint 0, Perkin Elmer). After 24 hours, cell-associated tritium was quantified by counting on a plate reader (TopCount, Perkin Elmer). Incorporated [3H] thymidine was plotted for each drug concentration.

[2] = tested on: MDA-MB-231 breast cancer cells; test: cells
Description: Breast cancer cells (MDA-MB231) were incubated with increasing concentrations of KBC106 or curcumin. After 72 hrs, thymidine incorporation assay was performed to assess the anti-proliferative properties of both molecules. IC50 values were extracted from the anti-proliferative curves.
as §2, with “curves.” for “curves. In all cases, the Curcumin conjugate (KBC106) had stronger anti-proliferative activity (9-100 fold) than unconjugated Curcumin, as shown in Table 6 below.”
as §3

[3] = tested on: ES-2 ovarian cancer cells; test: [3H]-Thymidine incorporation cell proliferation assay, ES-2; assay type: cell-based; conditions: ES-2 (Ovary)
Description: as §1, §2, §3

A-375 skin cancer cells = test: [3H]-Thymidine incorporation cell proliferation assay, A-375; assay type: cell-based
Description: as §1, §2, §3

[4] = tested on: ES-2 ovarian cancer cells; test: ES-2 ovarian subcutaneous tumors (Doxorubicin, KBB106); assay type: in vivo, mice; conditions: Day 14 post-treatment; equivalent dose of Doxorubicin 6 mg/kg/week
Description: 25A. Mice were implanted in the flank with ES-2 ovarian cancer cells. Tumor growth was measured using a caliper. When tumors reached a tumor volume of about 150 mm^3, mice were treated with Doxorubicin or KBB106 at an equivalent dose of Doxorubicin (6 mg/kg/week). 25B. […] 25C.
(§4) The effect of the conjugated and unconjugated Doxorubicin was also evaluated on ovarian subcutaneous tumors. Mice were implanted in the with ES-2 ovarian cancer cells. Tumor growth was measured using a caliper. When tumors reached a tumor volume of about 150 mm^3, mice were treated with Doxorubicin or Katana-Doxorubicin conjugate KBB106 at an equivalent dose of Doxorubicin (6 mg/kg/week).

sortilin = biological target: T1, sortilin (Homo sapiens, UniProt Q99523); test: Uptake of KBB106 in ovarian cancer cells with reduced sortilin expression; assay type: cell-based; conditions: ovarian cancer cells transfected with sortilin siRNA
T1 construct: Ovarian cancer cells were transfected with sortilin siRNA (siSortilin) for 24 hrs and then incubated with KBB106; endogenous in cells
T1 sequence (Q99523 78-831): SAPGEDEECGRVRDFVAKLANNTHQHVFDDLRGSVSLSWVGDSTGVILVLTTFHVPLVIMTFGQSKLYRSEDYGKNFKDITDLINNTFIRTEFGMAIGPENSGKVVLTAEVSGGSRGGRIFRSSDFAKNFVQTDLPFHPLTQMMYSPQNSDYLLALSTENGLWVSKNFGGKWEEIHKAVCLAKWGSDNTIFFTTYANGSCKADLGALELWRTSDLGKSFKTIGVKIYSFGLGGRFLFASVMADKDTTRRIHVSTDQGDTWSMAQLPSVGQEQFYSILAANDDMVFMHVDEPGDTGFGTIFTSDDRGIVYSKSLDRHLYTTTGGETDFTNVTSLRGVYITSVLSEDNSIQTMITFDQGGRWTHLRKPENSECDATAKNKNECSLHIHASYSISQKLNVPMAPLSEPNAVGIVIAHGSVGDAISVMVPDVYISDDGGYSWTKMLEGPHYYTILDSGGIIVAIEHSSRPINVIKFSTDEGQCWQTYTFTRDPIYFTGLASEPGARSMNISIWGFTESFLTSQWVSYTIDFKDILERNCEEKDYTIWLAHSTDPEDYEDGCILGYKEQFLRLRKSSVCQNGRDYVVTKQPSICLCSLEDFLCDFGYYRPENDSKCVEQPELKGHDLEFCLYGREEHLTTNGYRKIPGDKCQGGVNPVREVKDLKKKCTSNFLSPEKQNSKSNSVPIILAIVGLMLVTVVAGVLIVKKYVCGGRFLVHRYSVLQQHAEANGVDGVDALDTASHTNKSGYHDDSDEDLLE
Description: A. Ovarian cancer cells were transfected with sortilin siRNA (siSortilin) for 24 hrs and then incubated with KBB106. Accumulation of KBB106 was monitored by the released of fluorescent Doxorubicin as a function of time. B. Ovarian cancer cells were incubated with KBB106 in the presence or absence of sortilin ligand (Katana peptide, progranulin). KBB106 accumulation was estimated by the released of fluorescent Doxorubicin.
The uptake of the Katana conjugate is increased in cells expressing the sortilin receptor.

[5] = tested on: SKOV3 ovarian cancer cells; test: SKOV3 ovarian subcutaneous tumors (KBB106); conditions: KBB106 18 mg/kg/week
Description: 26A. Mice were implanted in the flank with SKOV3 ovarian cancer cells. When tumors reached a volume of about 150 mm^3, mice were treated with KBB106 (18 mg/kg/week) as indicated by the arrows. […] 26B. Body weight of mice was monitored during the treatments.
as §4

[6] = tested on: HCC-1569 breast cancer cells; test: cells; assay type: cell-based; conditions: HCC-1569 (HER2+; Herceptin resistant); Table 6
Description: as §2, §3

[7] = tested on: HCC-1954 breast cancer cells; test: cells; assay type: cell-based; conditions: HCC-1954 (HER2+; Lapatinib resistant); Table 6
Description: as §2, §3

[8] = tested on: HT-29 colorectal cancer cells; test: cells; assay type: cell-based; conditions: Table 6
Description: as §2, §3

[9] = Homo sapiens, SK-MEL-28 (Skin), Table 4, 2 or 3 days
[10] = Homo sapiens, A-375 (Skin), Table 4, 2 or 3 days

SMILES | IC50 [1, 9] [nM] | IC50 ([2]; Homo sapiens, MDA-MB-231) [nM] | IC50 ([3]; Table 4, 2 or 3 days) [nM] | IC50 (A-375 skin cancer cells; [10]) [nM] | tumor volume decrease compared to the vehicle group [4] [%] | further results
CO[C@H]1C(=O)[C@]2(C)[C@@H](OC)C[C@H]3OC[C@@]3(OC(C)=O)[C@H]2[C@H](OC(=O)c2ccccc2)[C@]2(O)C[C@H](OC(=O)[C@H](O)[C@@H](NC(=O)OC(C)(C)C)c3ccccc3)C(C)=C1C2(C)C [Cabazitaxel, cabazitaxel] | 0.12 | 0.44 | 0.66 | 0.34 |  | 
COc1cccc2c1C(=O)c1c(O)c3c(c(O)c1C2=O)C[C@@](O)(C(=O)CO)C[C@@H]3O[C@H]1C[C@H](N)[C@H](O)[C@H](C)O1 [Doxorubicin, doxorubicin] | 79.3 | 9.7 | 73.5 | 11.8 | 43 | 
CCCC[C@H](NC(=O)[C@H](CC(N)=O)NC(=O)[C@H](CCCNC(=N)N)NC(=O)[C@@H](NC(=O)CNC(=O)[C@H](C)NC(=O)[C@H](CCCCNC(=O)CC(C)(C)CC(=O)OCC(=O)[C@]1(O)Cc2c(O)c3c(c(O)c2[C@@H](O[C@H]2C[C@H](N)[C@H](O)[C@H](C)O2)C1)C(=O)c1c(OC)cccc1C3=O)NC(=O)[C@H](C)NC(=O)[C@H](CCCNC(=N)N)NC(=O)[C@@H](NC(=O)CNC(C)=O)C(C)C)C(C)C)C(=O)N[C@@H](Cc1ccccc1)C(=O)N[C@@H](CCCCNC(=O)CC(C)(C)CC(=O)OCC(=O)[C@]1(O)Cc2c(O)c3c(c(O)c2[C@@H](O[C@H]2C[C@H](N)[C@H](O)[C@H](C)O2)C1)C(=O)c1c(OC)cccc1C3=O)C(=O)N[C@@H](CO)C(=O)N[C@@H](CCC(=O)O)C(=O)N[C@@H](CO)C(=O)N[C@@H](Cc1ccc(O)cc1)C(=O)O [KBB-106, Acetyl-GVRAK(doxorubicin)AGVRN(Nle)FK(doxorubicin)SESY] (Ac-GVRAK(X3)AGVRN[Nle]FK(X3)SESY-OH; C-terminus assumed) |  |  |  |  | 97 | uptake in cells where sortilin expression was reduced (sortilin): reduced; effect on body weight [5]: little effect on the body weight; progression of SKOV3 xenograft tumors [5]: significantly decreased compared to the control group
CCCC[C@H](NC(=O)[C@H](CC(N)=O)NC(=O)[C@H](CCCNC(=N)N)NC(=O)[C@@H](NC(=O)CNC(=O)[C@H](C)NC(=O)[C@H](CCCCNC(=O)CC(C)(C)CC(=O)Oc1ccc(/C=C/C(=O)CC(=O)/C=C/c2ccc(O)c(OC)c2)cc1OC)NC(=O)[C@H](C)NC(=O)[C@H](CCCNC(=N)N)NC(=O)[C@@H](NC(=O)CNC(C)=O)C(C)C)C(C)C)C(=O)N[C@@H](Cc1ccccc1)C(=O)N[C@@H](CCCCNC(=O)CC(C)(C)CC(=O)Oc1ccc(/C=C/C(=O)CC(=O)/C=C/c2ccc(O)c(OC)c2)cc1OC)C(=O)N[C@@H](CO)C(=O)N[C@@H](CCC(=O)O)C(=O)N[C@@H](CO)C(=O)N[C@@H](Cc1ccc(O)cc1)C(=O)O [KBC106, Acetyl-GVRAK(curcumin)AGVRN(Nle)FK(curcumin)SESY] (Ac-GVRAK(X2)AGVRN[Nle]FK(X2)SESY-OH; C-terminus assumed) |  |  |  |  |  | IC50 ([1]; SK-MEL-28, Table 6): 243 nM; IC50 ([2]; MDA-MB231 (Triple negative), Table 6, 72 hrs): 135 nM; IC50 ([3]; Table 6): 1520 nM; IC50 (A-375 skin cancer cells; A-375, Table 6): 326 nM; IC50 [6]: 1010 nM; IC50 [7]: 1290 nM; IC50 [8]: 3600 nM
